In brackets after ≈: the same amount, converted by molar mass.
Legend:
Assay in all cases: In Vitro Minimum Inhibitory Concentration
Assay type in all cases: cell-based
Acinetobacter baumannii = test system: Acinetobacter baumannii
Method: (§1) Subsequent dilutions had the concentration calculated in ppm. Each concentration was challenged with an equal volume of microbial inoculums. After incubation the lowest concentration showing “No-Growth” was recorded as the Minimum Inhibitory Concentration.

Bacteroides fragilis = test system: Bacteroides fragilis
Method: as §1

Candida albicans = test system: Candida albicans
Method: as §1

Candida parapsilosis = conditions: Lodderomyces parapsilosis; clinical isolate 040400Cp2
Method: as §1

Candida tropicalis = conditions: ATCC750, ATCC 750
Method: as §1

Enterobacter aerogenes = conditions: Klebsiella aerogenes
Method: as §1

Enterococcus faecalis = test system: Enterococcus faecalis
Method: as §1

Enterococcus faecium = test system: Enterococcus faecium
Method: as §1

Escherichia coli = conditions: for MIC: Escherichia coli
Method: as §1

Haemophilus influenzae = test system: Haemophilus influenzae
Method: as §1

Klebsiella oxytoca = test system: Klebsiella oxytoca
Method: as §1

Klebsiella pneumoniae = test system: Klebsiella pneumoniae
Method: as §1

Micrococcus luteus = conditions: ATCC7468, ATCC 7468
Method: as §1

MIC (Acinetobacter baumannii; ATCC19606, ATCC 19606, trypticase soy broth): 4380 µg/mL (≈ 95 mM)
MIC (Acinetobacter baumannii; clinical isolate 061901 Ab1): 8750 µg/mL (≈ 190 mM)
MIC (Bacteroides fragilis; ATCC25285, ATCC 25285): 8750 µg/mL (≈ 190 mM)
MIC (Bacteroides fragilis; clinical isolate 061901Bf2): 8750 µg/mL (≈ 190 mM)
MIC (Candida albicans; ATCC10231, ATCC 10231): 17500 µg/mL (≈ 380 mM)
MIC (Candida albicans; clinical isolate 040400Ca2): 17500 µg/mL (≈ 380 mM)
MIC (Candida parapsilosis): 17500 µg/mL (≈ 380 mM)
MIC (Candida tropicalis): 17500 µg/mL (≈ 380 mM)
MIC (Enterobacter aerogenes; ATCC13048, ATCC 13048): 8750 µg/mL (≈ 190 mM)
MIC (Enterobacter aerogenes; clinical isolate 040400Ea1): 8750 µg/mL (≈ 190 mM)
MIC (Enterococcus faecalis; ATCC29212, ATCC 29212): 8750 µg/mL (≈ 190 mM)
MIC (Enterococcus faecalis; clinical isolate 040400Esp17): 8750 µg/mL (≈ 190 mM)
MIC (Enterococcus faecium; ATCC51559, ATCC 51559): 8750 µg/mL (≈ 190 mM)
MIC (Enterococcus faecium; clinical isolate 061901Efm1): 8750 µg/mL (≈ 190 mM)
MIC (Escherichia coli; ATCC11229, ATCC 11229): 8750 µg/mL (≈ 190 mM)
MIC (Escherichia coli; ATCC25922, ATCC 25922): 8750 µg/mL (≈ 190 mM)
MIC (Escherichia coli; clinical isolate 051599Ec): 8750 µg/mL (≈ 190 mM)
MIC (Haemophilus influenzae; ATCC19418, ATCC 19418): 5830 µg/mL (≈ 127 mM)
MIC (Haemophilus influenzae; clinical isolate 121699Hi): 5830 µg/mL (≈ 127 mM)
MIC (Klebsiella oxytoca; ATCC43165, ATCC 43165): 8750 µg/mL (≈ 190 mM)
MIC (Klebsiella oxytoca; clinical isolate 061901Ko1): 8750 µg/mL (≈ 190 mM)
MIC (Klebsiella pneumoniae; ATCC13883, ATCC 13883): 4380 µg/mL (≈ 95 mM)
MIC (Klebsiella pneumoniae; clinical isolate 06190Kpn1): 8750 µg/mL (≈ 190 mM)
MIC (Micrococcus luteus): 8750 µg/mL (≈ 190 mM)
SMILES: CCO [70% ethyl alcohol, ethyl alcohol]
Minimum Inhibitory Concentration (Escherichia coli; clinical isolate 070399Ec): 8750 ppm
